Several values for one entry are separate records, joined by “and”; a condition that tells them apart may be missing. Identical values can stand only once. Counter-ions that a name gives are not always drawn.
Legend:
[1] = tested on: platelets; conditions: over a period of 1–2 h; impedance procedures; depends on sodium citrate concentration; cited from earlier work
[2] = tested on: whole blood; test: Comparison of ADVIA 120 haematology results in anticoagulated blood; format: cell-based, human; conditions: Table 2, Mean (+/-S.E.) at 30 minutes, 7 control samples
Description: (§1) Whole blood samples were taken into Vacutainer™ containers that contained either K3EDTA, or CTAD, or a mixture of K3EDTA and CTAD (E/C). For the latter, blood was collected first into K3EDTA and then immediately transferred to a Vacutainer™ containing CTAD. Samples were held at ambient temperature, analysed immediately and at 30, 60, 120, and 180 min after venesection. Analysis of platelet count (PLT), mean platelet volume (MPV) and mean platelet component concentration (MPC) was done using the ADVIA®120 haematology system (Bayer Corporation, Tarrytown, N.Y.) Platelet counts made in blood anticoagulated with CTAD and E/C were corrected for dilution (dilution factors were 1.11 and 1.125 respectively). The system was calibrated and standardised prior to use with ADVIA®-SETpoint Haematology Control and ADVIA® OPTIpoint, respectively (Bayer Corporation). In one series of experiments (n=4) these analyses were performed on blood samples anticoagulated with E/C but held at ambient temperature and at 4° C. to investigate the effect of cooling on platelet activation.

[3] = tested on: platelets in whole blood; test: Assessment of platelet activation on the ADVIA 120 (PLT, MPV, MPC, PCDW, MPM); format: cell-based, human; conditions: for Platelet count in blood: CTAD and E/C corrected for dilution; for Platelet counts in blood: Example 3 Table 1, ambient temperature, mean of 7
Description: Assessment of platelet activation on the ADVIA 120. Whole blood samples were taken into Vacutainer™ containers (Becton Dickinson) containing either EDTA, CTAD, or a mixture of EDTA and CTAD (E/C). Samples were analysed immediately post-venesection and at timed intervals of 30, 60, 120, and 180 minutes post venesection. Analysis of platelet count (PLT), mean platelet volume (MPV), mean platelet component (MPC) and mean platelet component distributionwidth (PCDW) was performed using the ADVIA 120 Haematology System (Bayer Corporation, Tarrytown, N.Y.) calibrated prior to use with ADVIA TESTpoint Haematology Control reagents. (Bayer Corporation, Tarrytown, N.Y.).
Whole blood samples were taken into Vacutainer™ containers (Becton Dickinson) containing EDTA and mixed with the aforementioned platelet antagonists, or with CTAD (this mixture is referred to as E/C). Samples were analysed as in Example 1.
as §1

[4] = tested on: platelets in whole blood; test: Expression of CD62P on platelets by flow cytometry; format: cell-based, human; conditions: for CD62P % expression in blood: Example 1, n=6, mean±se; for CD62P % positive platelets in blood: Example 3, at RT
Description: (§2) Measurement of the expression CD62P and the number of leucocyte platelet aggregates (PLAs). Anti-coagulated blood (5 μl) was incubated at room temperature with either FITC CD62P (5 μl) or FITC isotype control (5 μl), or PE CD45 (5 μl) and FITC isotype control (5 μl) or FITC CD42a (5 μl) and PE CD45 (5 μl), in 90 μl of TS for 5 min. Samples were diluted to 1 ml with TS and analysed immediately by flow cytometry.
(§3) Flow cytometry. Blood cells were analysed on a FACScan (Becton Dickinson, Oxford, UK) equipped with CellQuest® software. The flow cytometer was calibrated prior to use with fluorochrome labelled beads (Fluorospheres™, Dako).
For the analysis of CD62P expression data was acquired in real time with a primary gate set on a dual parameter histogram of forward light scatter (FLS) logarithmic scale (abscissa) and side light scatter (SLS) logarithmic scale (ordinate). This facilitated identification of the platelets within the blood and was confirmed by the analysis of CD42a expression (FIG. 1). Background fluorescence was assessed with platelets labelled with the FITC conjugated isotype control antibody. Cursors were set in a single parameter histogram of frequency (ordinate) and green fluorescence intensity (abscissa), so that less than 1% of the platelets stained positively with the control antibody. Changes in CD62P expression (green fluorescence logarithmic scale), together with those of FLS and SLS, were then recorded on the gated platelets.

[5] = tested on: platelet leucocyte aggregates in whole blood; test: Platelet-leucocyte aggregates (PLAs) by flow cytometry; format: cell-based, human
Description: as §2, §3
For the analysis of platelet-leucocyte aggregates (FIG. 2), cells were analysed in a histogram of side scatter (logarithmic scale ordinate) and orange fluorescence (logarithmic scale abscissa). Leucocytes identified by their positive staining with PE CD45 were gated to a histogram of green fluorescence (logarithmic scale ordinate) and orange fluorescence (logarithmic scale abscissa). Events that were both green and orange were considered platelet leucocyte aggregates and recorded as a percentage of a total of 10,000 gated leucocytes.
As Example 1. Platelet-leucocyte aggregates could then be gated to a histogram (C) of side scatter (logarithmic scale ordinate) and orange fluorescence (logarithmic scale abscissa) to identify, by their characteristic SLS, which leucocytes were forming PLAs.

[6] = tested on: platelets; conditions: room temperature; on average; Threatte et al., 1984; cited from earlier work
[7] = Example 1, 30 min, n=6, mean±se
[8] = Example 1, 60 min, n=6, mean±se
[9] = Example 1, 120 min, n=6, mean±se
[10] = Example 1, 180 min, n=6, mean±se

O=C(O)CC(O)(CC(=O)O)C(=O)O [citrate, trisodium citrate]
increase in platelet volume [1]: 3–10%

O=C(O)CN(CCN(CC(=O)O)CC(=O)O)CC(=O)O [EDTA, Ethylenediaminetetra-acetic acid]
MPC [2]: 29.1 (0.52) g/dL
MPV [2]: 7.7 (0.27) fL
PCDW [2]: 5.00 (0.09) g/dL
PCT [2]: 0.19 (0.01) %
PDW [2]: 58.9 (3.24) %
PLT ([2]; CTAD ×1.11, E/C ×1.125): 246 (14) 109/L
Platelet count in blood ([3]; Example 1, 0 min, n=6): 235±12
MPC in blood ([3]; Example 1, 0 min, n=6, mean±se): 28.0 ± 0.87 g/dL
MPV in blood ([3]; Example 1, 0 min, n=6, mean±se): 8.0 ± 0.37 fL
PCDW in blood ([3]; Example 1, 0 min, n=6, mean±se): 5.85 ± 0.28 g/dL
Platelet count in blood ([3]; Example 1, 30 min, n=6): 246 ± 14
MPC in blood [3, 7]: 29.1 ± 0.52 g/dL
MPV in blood [3, 7]: 7.7 ± 0.27 fL
PCDW in blood [3, 7]: 5.00 ± 0.09 g/dL
Platelet count in blood ([3]; Example 1, 60 min, n=6): 249 ± 14
MPC in blood [3, 8]: 28.8 ± 0.42 g/dL
MPV in blood [3, 8]: 7.7 ± 0.24 fL
PCDW in blood [3, 8]: 5.00 ± 0.12 g/dL
Platelet count in blood ([3]; Example 1, 120 min, n=6): 247 ± 14
MPC in blood [3, 9]: 27.9 ± 0.48 g/dL
MPV in blood [3, 9]: 8.0 ± 0.30 fL
PCDW in blood [3, 9]: 4.80 ± 0.11 g/dL
Platelet count in blood ([3]; Example 1, 180 min, n=6): 246 ± 5
MPC in blood [3, 10]: 27.1 ± 0.36 g/dL
MPV in blood [3, 10]: 8.1 ± 0.21 fL
PCDW in blood [3, 10]: 4.80 ± 0.08 g/dL and 4.80 ± 0.06 g/dL
MPC in blood ([3]; Example 3, at RT, 0 min): 2.8e-12 ± 8.7e-14 g/dL
MPV in blood ([3]; Example 3, at RT, 0 min): 8.0 ± 0.37 fL
MPC in blood ([3]; Example 3, at RT, 30 min): 2.91e-12 ± 5.2e-14 g/dL
MPV in blood ([3]; Example 3, at RT, 30 min): 7.7 ± 0.27 fL
MPC in blood ([3]; Example 3, at RT, 60 min): 2.88e-12 ± 4.2e-14 g/dL
MPV in blood ([3]; Example 3, at RT, 60 min): 7.7 ± 0.24 fL
MPC in blood ([3]; Example 3, at RT, 120 min): 2.79e-12 ± 4.8e-14 g/dL
MPV in blood ([3]; Example 3, at RT, 120 min): 8.0 ± 0.30 fL
MPC in blood ([3]; Example 3, at RT, 180 min): 2.71e-12 ± 3.6e-14 g/dL
MPV in blood ([3]; Example 3, at RT, 180 min): 8.1 ± 0.21 fL
Platelet counts in blood ([3]; 0 min): 235 ± 13
Platelet counts in blood ([3]; 30 min): 246 ± 14
Platelet counts in blood ([3]; 180 min): 246 ± 5
CD62P % expression in blood ([4]; 0 min post venesection): 1.10 ± 0.24%
CD62P % expression in blood ([4]; 30 min): 3.71 ± .04%
CD62P % expression in blood ([4]; 60 min): 11.27 ± .60%
CD62P % expression in blood ([4]; 120 min): 18.94 ± 2.53%
CD62P % expression in blood ([4]; 180 min): 23.05±2.79%
CD62P % positive platelets in blood ([4]; 0 min): 1.10 ± 0.24%
CD62P % positive platelets in blood ([4]; 0 min, listed as K3EDTA): 1.10±0.61%
CD62P % positive platelets in blood ([4]; 30 min): 3.71 ± 1.04%
CD62P % positive platelets in blood ([4]; 60 min): 11.27 ± 1.60%
CD62P % positive platelets in blood ([4]; 120 min): 18.94 ± 2.53%
CD62P % positive platelets in blood ([4]; 180 min): 23.05 ± 2.79%
CD62P % positive platelets in blood ([4]; 180 min, listed as K3EDTA): 23.05±1.54%
% platelet leucocyte aggregates in blood ([5]; Example 1, 0 min, n=6, mean±se): 3.50±0.50%
% platelet leucocyte aggregates in blood [5, 7]: 4.16 ± 0.86%
% platelet leucocyte aggregates in blood [5, 8]: 8.87 ± 1.54%
% platelet leucocyte aggregates in blood [5, 9]: 8.50 ± 1.44%
% platelet leucocyte aggregates in blood [5, 10]: 13.50±2.41%
% platelet leucocyte aggregates in blood ([5]; Example 3, at RT, 0 min): 3.30 ± 0.5%
% platelet leucocyte aggregates in blood ([5]; Example 3, at RT, 0 min, listed as K3EDTA): 3.50±0.71%
% platelet leucocyte aggregates in blood ([5]; Example 3, at RT, 30 min): 4.16 ± 0.86%
% platelet leucocyte aggregates in blood ([5]; Example 3, at RT, 60 min): 8.87 ± 1.54%
% platelet leucocyte aggregates in blood ([5]; Example 3, at RT, 120 min): 8.50 ± .44%
% platelet leucocyte aggregates in blood ([5]; Example 3, at RT, 180 min): 13.50 ± 1.74%
% platelet leucocyte aggregates in blood ([5]; Example 3, at RT, 180 min, listed as K3EDTA): 13.50±1.74%
MPV greater than in corresponding citrate anticoagulated blood [6]: 23%
